One test deals with Jurkat cells. The test can be described thus: Cytotoxicity against Jurkat cells. In kind it is cell-based, human. As to conditions: Table 5, Jurkat Cells.
The next test concerns HL-60/MX2 cells. The test can be described thus: cells. From the text: (§1) The DNA binding agent Mitoxantrone was included as a control, as HL-60/MX2 cells are reported to be resistant to this chemotherapeutic agent (Harker W. G. et al. 1989).
A further test concerns HL-60 cells. Description: Cell growth inhibition (resazurin, 48 hours), HL-60.
Excerpt: as §1
A general note: Resazurin is reduced to fluorescent resorufin, in cell work by metabolically active cells.

Test [1] deals with LeTx-induced cytotoxicity of RAW264.7 cells. As to conditions: 1 μM.
Test [2] addresses T1, chymotrypsin-like activity of rabbit muscle 20S proteasomes (Oryctolagus cuniculus, UniProt G1T4Q9).
T1 sequence (G1T4Q9 1-263): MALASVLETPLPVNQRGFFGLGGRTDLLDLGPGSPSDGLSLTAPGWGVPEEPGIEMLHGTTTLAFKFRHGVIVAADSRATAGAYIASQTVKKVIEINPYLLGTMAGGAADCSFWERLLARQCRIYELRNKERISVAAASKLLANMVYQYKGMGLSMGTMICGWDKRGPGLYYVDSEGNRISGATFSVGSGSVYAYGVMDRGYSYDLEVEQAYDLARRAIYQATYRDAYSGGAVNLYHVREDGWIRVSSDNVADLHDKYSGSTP
The test can be described thus: Inhibition of chymotrypsin-like activity of purified rabbit muscle 20S proteasome (suc-LLVY-AMC). In kind it is biochemical. Particulars: Example 21. The protocol:
This peptide substrate is specific for the chymotrypsin-like enzyme activity of the proteasome.
Omuralide was prepared as a 10 mM stock in DMSO and stored in 5 μL aliquots at −80° C. […] The assay measures the hydrolysis of Suc-LLVY-AMC into Suc-LLVY and AMC. The released coumarin (AMC) was measured fluorometrically by using λex=390 nm and λem=460 nm. The assays were performed in a microtiter plate (Corning 3904), and followed kinetically with measurements every five minutes. The instrument used was a Thermo Lab Systems Fluoroskan, with the incubation chamber set to 37° C. The assays were performed according to the manufacturer's protocol, with the following changes. The proteasome was activated as described with SDS, and held on ice prior to the assay. […] Ten microliters of each dose were added in triplicate to the assay plate, and 190 μL of the activated proteasome was added and mixed. The samples were pre-incubated in the Fluoroskan for 5 minutes at 37° C. Substrate was added and the kinetics of AMC were followed for one hour.

Test [3] has as its system LeTx-induced cytotoxicity of RAW264.7 cells. Particulars: read-out: EC50 concentrations in the LeTx assay; cited from earlier work.

Each structure is given as a SMILES string. Read-outs that look alike come from different tables or passages of the source. Peptide text beside a SMILES is read from it. * marks the point of attachment. Cbz = O=C(OCc1ccccc1)*

Regarding `O=C1c2c(O)ccc(O)c2C(=O)c2c(NCCNCCO)ccc(NCCNCCO)c21` [Mitoxantrone, reference compound], the EC50 is 50 nM with Jurkat cells (Homo sapiens, read-out: EC50); 1340 nM with HL-60/MX2 cells (Homo sapiens, HL60/MX2, read-out: EC50 (nM) HL-60/MX2, Table 17); 42 nM with HL-60 cells (Homo sapiens, HL-60, read-out: EC50 (nM) HL-60, Table 17); 40 nM in the test with HL-60 cells (read-out: EC50 (nM) HL-60, Table 17). Also, in the test with Jurkat cells, the “% max cell kill” value was found to be 99%. Besides, the Fold change with HL-60/MX2 cells (Table 17, ratio of EC50 values (HL-60/MX2:HL-60)) came to 30.6 fold.
Turning to `CC(C)[C@H](O)[C@@]12NC(=O)[C@H](C)[C@@H]1OC2=O` [Omuralide, reference compound], the “viability, compound + LeTx” value in test [1] came to 37%. Besides, the EC50 in test [2] (Calbiochem 20S Proteasome Kit, read-out: average EC50 in the two assays, chymotrypsin-like activity) was 52 nM; in test [2] (first experiment, read-out: EC50, average value in the 20S proteasome assay (FIG. 27)), 49 nM.
Regarding `CC(=O)N[C@@H](CSC(=O)[C@]1([C@@H](O)C(C)C)NC(=O)[C@H](C)[C@@H]1O)C(=O)O` [Lactacystin], the EC50 in test [3] is 3000 nM.
For the compound `CC(C)C[C@@H](C=O)NC(=O)[C@H](CC(C)C)NC(=O)[C@H](CC(C)C)NC(=O)OCc1ccccc1` [MG132] (Cbz-Leu-Leu-Leu-aldehyde), the EC50 in test [3] is 3000 nM.

Values taken from US20050049294A1, “Methods of using [3.2.0] heterocyclic compounds and analogs thereof” (priority 2003, published 2005).
